Assay results taken from US20230165873A1, “Methods of Use for Single Molecule Compounds Providing Multi-Target Inhibition to Treat Covid 19” (priority 2020, published 2023).

Molecular target: PI3K gamma (Homo sapiens, UniProt P48736)
Experiment: PI3K gamma in vitro inhibition
Format: biochemical
Conditions: read-out: IC50 inhibition PI3K gamma
Description: (§1) The kinase or bromodomain inhibitory activity of a compound of the invention can be determined by routine methods known to the skilled artisan without undue experimentation, or by procuring relevant analysis by a commercial vendor offering such services. […] In vivo, PI3K inhibition can be determined from target tissue biopsies by standard tissue processing in which cells are disrupted and Western Blot analysis is performed to determine the presence or absence of pAKT (substrate of PI3K) relative to a control sample. PI3K inhibition assays and BTK inhibition assays are known in the art and can be procured commercially through vendors such as Reaction Biology (Malvern, PA). The activity of a compound of the invention as an inhibitor of a bromodomain-containing protein, such as a BET protein, including BRD2, BRD3, BRD4, and/or BRDT, or an isoform or mutant thereof, may be determined in vitro, in vivo, or in a cell line. In vitro assays include assays that determine inhibition of bromodomain-containing proteins. Alternatively, inhibitor binding may be determined by running a competition experiment where a provided compound is incubated with a bromodomain-containing protein, such as a BET protein bound to known ligands, labeled or unlabeled. In vitro bromodomain inhibition assays can be performed using Alpha Screen Technology (Perkin Elmer Life and Analytical Sciences, Shelton, CT). In vivo bromodomain inhibition can be determined indirectly by evaluating the amount of a protein whose gene transcription is influenced or controlled by the bromodomain protein, for example, MYCN protein transcription is controlled by BRD4 (J.E. Delmore et al., Cell 2011, 146, 904-917; A. Puissant, Cancer Discov. 2013, 3, 308-323).
(§2) IC50 inhibition data against the indicated targets were determined for compounds of the invention using standard in vitro assays (Tables 8 and 9).

PI3K gamma, sequence (P48736 whole entry): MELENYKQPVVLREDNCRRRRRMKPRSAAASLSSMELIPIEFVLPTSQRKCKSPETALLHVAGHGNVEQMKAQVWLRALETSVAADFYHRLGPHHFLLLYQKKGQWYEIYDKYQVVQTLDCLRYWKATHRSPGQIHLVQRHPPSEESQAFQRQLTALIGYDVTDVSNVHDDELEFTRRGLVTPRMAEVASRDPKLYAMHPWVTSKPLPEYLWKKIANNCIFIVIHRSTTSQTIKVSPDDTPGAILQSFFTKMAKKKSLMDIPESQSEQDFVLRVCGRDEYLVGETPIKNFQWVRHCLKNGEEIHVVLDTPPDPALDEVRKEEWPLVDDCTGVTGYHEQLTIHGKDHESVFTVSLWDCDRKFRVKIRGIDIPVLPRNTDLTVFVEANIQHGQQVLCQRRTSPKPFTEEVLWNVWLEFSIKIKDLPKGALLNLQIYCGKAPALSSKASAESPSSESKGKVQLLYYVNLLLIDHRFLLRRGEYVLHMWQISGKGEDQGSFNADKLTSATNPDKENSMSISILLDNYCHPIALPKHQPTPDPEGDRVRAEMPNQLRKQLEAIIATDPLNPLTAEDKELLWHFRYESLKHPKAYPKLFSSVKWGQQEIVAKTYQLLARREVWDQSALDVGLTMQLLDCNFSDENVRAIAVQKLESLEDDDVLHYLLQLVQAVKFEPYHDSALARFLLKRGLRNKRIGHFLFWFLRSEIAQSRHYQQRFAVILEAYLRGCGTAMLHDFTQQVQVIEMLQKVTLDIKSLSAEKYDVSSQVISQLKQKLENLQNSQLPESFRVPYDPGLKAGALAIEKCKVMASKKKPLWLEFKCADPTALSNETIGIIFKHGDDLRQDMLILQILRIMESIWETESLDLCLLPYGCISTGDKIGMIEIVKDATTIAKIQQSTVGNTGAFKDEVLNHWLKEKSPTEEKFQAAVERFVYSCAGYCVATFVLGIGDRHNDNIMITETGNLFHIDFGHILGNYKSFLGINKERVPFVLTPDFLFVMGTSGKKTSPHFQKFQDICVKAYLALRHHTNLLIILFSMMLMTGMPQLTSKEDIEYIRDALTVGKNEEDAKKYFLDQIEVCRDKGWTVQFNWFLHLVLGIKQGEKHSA

Row | Compound | IC50 [nM]
1 | CN(C)C(=O)c1cc2cnc(Nc3ccc(-c4csc5c(=O)cc(N6CCN(C(=O)OC(C)(C)C)CC6)oc45)cc3)nc2n1C1CCCC1 [Compound 10] | 1000 to 10000
2 | COC(=O)c1cc(-c2csc3c(=O)cc(N4CCOCC4)oc23)ccc1Nc1ncc2cc(C(=O)N(C)C)n(C3CCCC3)c2n1 [Compound 11] | 1000 to 10000
3 | CN(C)C(=O)c1cc2cnc(Nc3csc4c(=O)cc(N5CCOCC5)oc34)nc2n1C1CCCC1 [Compound 12] | > 45000
4 | CN(C)C(=O)c1cc2cnc(Nc3ccc(-c4csc5c(=O)cc(N6CCOCC6)oc45)cc3C(=O)O)nc2n1C1CCCC1 [Compound 13] | 500 to 1000
5 | CN(C)C(=O)c1cc2cnc(Nc3ccc(-c4csc5c(=O)cc(N6CCOCC6)oc45)c(C(=O)O)c3)nc2n1C1CCCC1 [Compound 14] | < 500
6 | CN(C)C(=O)c1cc2cnc(Nc3ccc(-c4csc5c(=O)cc(N6CCOCC6)oc45)c(C(=O)O)c3)nc2n1C1CCCC1 [Compound 15] | 1000 to 10000
7 | CNC(=O)c1cc2cnc(Nc3ccc(-c4csc5c(=O)cc(N6CCOCC6)oc45)cc3)nc2n1C1CCCC1 [Compound 16] | 1000 to 10000
8 | CNC(=O)c1cc2cnc(Nc3ccc(C#Cc4csc5c(=O)cc(N6CCOCC6)oc45)cc3)nc2n1C1CCCC1 [Compound 17] | 500 to 1000

Molecular target: CDK4 cyclinD1 (Homo sapiens, UniProt P11802)
Sequence (P11802 whole entry): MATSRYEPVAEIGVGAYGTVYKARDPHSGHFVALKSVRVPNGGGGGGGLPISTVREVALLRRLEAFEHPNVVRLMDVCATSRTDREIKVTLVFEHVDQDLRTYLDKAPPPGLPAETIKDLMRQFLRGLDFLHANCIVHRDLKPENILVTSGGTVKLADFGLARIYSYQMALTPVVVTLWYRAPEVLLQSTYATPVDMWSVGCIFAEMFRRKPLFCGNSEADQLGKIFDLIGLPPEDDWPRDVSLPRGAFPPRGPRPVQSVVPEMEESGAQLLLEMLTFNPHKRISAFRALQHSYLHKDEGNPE
Sequence (P24385 whole entry partner): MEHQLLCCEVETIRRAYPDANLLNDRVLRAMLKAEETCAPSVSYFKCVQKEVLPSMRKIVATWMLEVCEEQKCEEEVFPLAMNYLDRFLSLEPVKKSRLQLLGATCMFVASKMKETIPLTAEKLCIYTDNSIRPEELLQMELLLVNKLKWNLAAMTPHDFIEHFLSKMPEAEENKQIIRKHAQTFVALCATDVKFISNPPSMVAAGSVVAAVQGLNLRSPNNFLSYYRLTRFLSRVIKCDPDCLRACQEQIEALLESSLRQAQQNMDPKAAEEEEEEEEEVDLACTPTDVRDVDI
Experiment: CDK4 cyclinD1 in vitro inhibition
Format: biochemical
Conditions: not given
Description: as §1, §2

Row | Compound | IC50 [nM]
9 | CN(C)C(=O)c1cc2cnc(Nc3ccc(-c4csc5c(=O)cc(N6CCN(C(=O)OC(C)(C)C)CC6)oc45)cc3)nc2n1C1CCCC1 [Compound 10] | < 500
10 | COC(=O)c1cc(-c2csc3c(=O)cc(N4CCOCC4)oc23)ccc1Nc1ncc2cc(C(=O)N(C)C)n(C3CCCC3)c2n1 [Compound 11] | > 45000
11 | CN(C)C(=O)c1cc2cnc(Nc3csc4c(=O)cc(N5CCOCC5)oc34)nc2n1C1CCCC1 [Compound 12] | 1000 to 10000
12 | CN(C)C(=O)c1cc2cnc(Nc3ccc(-c4csc5c(=O)cc(N6CCOCC6)oc45)cc3C(=O)O)nc2n1C1CCCC1 [Compound 13] | > 45000
13 | CN(C)C(=O)c1cc2cnc(Nc3ccc(-c4csc5c(=O)cc(N6CCOCC6)oc45)c(C(=O)O)c3)nc2n1C1CCCC1 [Compound 14] | 10000 to 45000
14 | CN(C)C(=O)c1cc2cnc(Nc3ccc(-c4csc5c(=O)cc(N6CCOCC6)oc45)c(C(=O)O)c3)nc2n1C1CCCC1 [Compound 15] | 1000 to 10000
15 | CNC(=O)c1cc2cnc(Nc3ccc(-c4csc5c(=O)cc(N6CCOCC6)oc45)cc3)nc2n1C1CCCC1 [Compound 16] | < 500
16 | CNC(=O)c1cc2cnc(Nc3ccc(C#Cc4csc5c(=O)cc(N6CCOCC6)oc45)cc3)nc2n1C1CCCC1 [Compound 17] | < 500

Molecular target: PI3K beta (Homo sapiens, UniProt P42338)
Sequence (P42338 whole entry): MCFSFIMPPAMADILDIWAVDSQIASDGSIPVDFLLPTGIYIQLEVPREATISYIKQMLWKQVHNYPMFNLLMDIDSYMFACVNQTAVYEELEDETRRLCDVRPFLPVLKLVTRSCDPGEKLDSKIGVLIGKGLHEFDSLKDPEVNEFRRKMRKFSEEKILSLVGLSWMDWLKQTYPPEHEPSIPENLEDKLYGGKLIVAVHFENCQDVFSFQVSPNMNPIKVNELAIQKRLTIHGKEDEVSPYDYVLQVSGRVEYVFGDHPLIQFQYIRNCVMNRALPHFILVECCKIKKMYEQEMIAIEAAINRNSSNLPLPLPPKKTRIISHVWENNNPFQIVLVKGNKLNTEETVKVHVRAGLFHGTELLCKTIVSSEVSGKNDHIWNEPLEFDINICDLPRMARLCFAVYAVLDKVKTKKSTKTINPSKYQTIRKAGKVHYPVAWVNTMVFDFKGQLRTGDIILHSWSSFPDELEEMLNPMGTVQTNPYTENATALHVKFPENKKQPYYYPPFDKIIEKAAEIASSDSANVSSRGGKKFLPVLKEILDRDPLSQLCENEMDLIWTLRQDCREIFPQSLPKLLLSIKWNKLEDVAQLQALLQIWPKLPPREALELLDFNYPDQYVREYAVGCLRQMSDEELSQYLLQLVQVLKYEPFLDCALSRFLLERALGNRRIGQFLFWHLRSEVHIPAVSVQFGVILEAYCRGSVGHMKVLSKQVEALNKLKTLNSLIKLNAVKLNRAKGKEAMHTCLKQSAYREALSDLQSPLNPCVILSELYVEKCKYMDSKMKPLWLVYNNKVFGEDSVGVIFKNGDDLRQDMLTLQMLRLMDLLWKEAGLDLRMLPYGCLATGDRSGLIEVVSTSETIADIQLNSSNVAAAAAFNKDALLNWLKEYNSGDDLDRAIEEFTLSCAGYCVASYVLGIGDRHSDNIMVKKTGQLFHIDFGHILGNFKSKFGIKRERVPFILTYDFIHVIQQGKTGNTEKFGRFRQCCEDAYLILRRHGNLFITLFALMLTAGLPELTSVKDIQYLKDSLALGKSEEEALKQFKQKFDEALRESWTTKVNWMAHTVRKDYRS
Sequence (P27986 whole entry partner): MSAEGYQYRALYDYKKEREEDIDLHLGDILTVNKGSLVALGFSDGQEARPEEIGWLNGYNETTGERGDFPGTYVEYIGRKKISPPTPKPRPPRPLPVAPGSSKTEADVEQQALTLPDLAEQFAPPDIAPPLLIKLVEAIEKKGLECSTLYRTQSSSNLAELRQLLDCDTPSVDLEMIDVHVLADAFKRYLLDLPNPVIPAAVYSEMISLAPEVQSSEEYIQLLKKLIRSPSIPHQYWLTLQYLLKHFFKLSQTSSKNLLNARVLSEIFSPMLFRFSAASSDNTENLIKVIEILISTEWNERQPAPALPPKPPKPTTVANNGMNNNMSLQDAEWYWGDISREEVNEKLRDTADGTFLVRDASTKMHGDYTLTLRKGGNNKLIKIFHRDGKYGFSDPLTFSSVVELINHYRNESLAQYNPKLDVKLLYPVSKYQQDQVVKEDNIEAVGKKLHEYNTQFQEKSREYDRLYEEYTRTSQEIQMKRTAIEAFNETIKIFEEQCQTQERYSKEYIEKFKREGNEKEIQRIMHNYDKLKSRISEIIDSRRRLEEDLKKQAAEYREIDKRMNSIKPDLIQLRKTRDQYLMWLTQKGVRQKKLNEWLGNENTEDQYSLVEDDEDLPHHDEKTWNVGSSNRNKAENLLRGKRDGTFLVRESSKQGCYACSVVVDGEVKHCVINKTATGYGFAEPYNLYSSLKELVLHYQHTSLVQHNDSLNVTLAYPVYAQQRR
Experiment: PI3K beta in vitro inhibition
Format: biochemical
Conditions: not given
Description: as §1

Row | Compound | IC50 [nM]
17 | CN(C)C(=O)c1cc2cnc(Nc3ccc(-c4csc5c(=O)cc(N6CCN(C(=O)OC(C)(C)C)CC6)oc45)cc3)nc2n1C1CCCC1 [Compound 10] | 500 to 1000
18 | COC(=O)c1cc(-c2csc3c(=O)cc(N4CCOCC4)oc23)ccc1Nc1ncc2cc(C(=O)N(C)C)n(C3CCCC3)c2n1 [Compound 11] | < 500
19 | CN(C)C(=O)c1cc2cnc(Nc3csc4c(=O)cc(N5CCOCC5)oc34)nc2n1C1CCCC1 [Compound 12] | < 500
20 | CN(C)C(=O)c1cc2cnc(Nc3ccc(-c4csc5c(=O)cc(N6CCOCC6)oc45)cc3C(=O)O)nc2n1C1CCCC1 [Compound 13] | < 500
21 | CN(C)C(=O)c1cc2cnc(Nc3ccc(-c4csc5c(=O)cc(N6CCOCC6)oc45)c(C(=O)O)c3)nc2n1C1CCCC1 [Compound 14] | < 500
22 | CN(C)C(=O)c1cc2cnc(Nc3ccc(-c4csc5c(=O)cc(N6CCOCC6)oc45)c(C(=O)O)c3)nc2n1C1CCCC1 [Compound 15] | < 500
23 | CNC(=O)c1cc2cnc(Nc3ccc(-c4csc5c(=O)cc(N6CCOCC6)oc45)cc3)nc2n1C1CCCC1 [Compound 16] | < 500
24 | CNC(=O)c1cc2cnc(Nc3ccc(C#Cc4csc5c(=O)cc(N6CCOCC6)oc45)cc3)nc2n1C1CCCC1 [Compound 17] | < 500

Molecular target: PI3K alpha (Homo sapiens, UniProt P42336)
Sequence (P42336 whole entry): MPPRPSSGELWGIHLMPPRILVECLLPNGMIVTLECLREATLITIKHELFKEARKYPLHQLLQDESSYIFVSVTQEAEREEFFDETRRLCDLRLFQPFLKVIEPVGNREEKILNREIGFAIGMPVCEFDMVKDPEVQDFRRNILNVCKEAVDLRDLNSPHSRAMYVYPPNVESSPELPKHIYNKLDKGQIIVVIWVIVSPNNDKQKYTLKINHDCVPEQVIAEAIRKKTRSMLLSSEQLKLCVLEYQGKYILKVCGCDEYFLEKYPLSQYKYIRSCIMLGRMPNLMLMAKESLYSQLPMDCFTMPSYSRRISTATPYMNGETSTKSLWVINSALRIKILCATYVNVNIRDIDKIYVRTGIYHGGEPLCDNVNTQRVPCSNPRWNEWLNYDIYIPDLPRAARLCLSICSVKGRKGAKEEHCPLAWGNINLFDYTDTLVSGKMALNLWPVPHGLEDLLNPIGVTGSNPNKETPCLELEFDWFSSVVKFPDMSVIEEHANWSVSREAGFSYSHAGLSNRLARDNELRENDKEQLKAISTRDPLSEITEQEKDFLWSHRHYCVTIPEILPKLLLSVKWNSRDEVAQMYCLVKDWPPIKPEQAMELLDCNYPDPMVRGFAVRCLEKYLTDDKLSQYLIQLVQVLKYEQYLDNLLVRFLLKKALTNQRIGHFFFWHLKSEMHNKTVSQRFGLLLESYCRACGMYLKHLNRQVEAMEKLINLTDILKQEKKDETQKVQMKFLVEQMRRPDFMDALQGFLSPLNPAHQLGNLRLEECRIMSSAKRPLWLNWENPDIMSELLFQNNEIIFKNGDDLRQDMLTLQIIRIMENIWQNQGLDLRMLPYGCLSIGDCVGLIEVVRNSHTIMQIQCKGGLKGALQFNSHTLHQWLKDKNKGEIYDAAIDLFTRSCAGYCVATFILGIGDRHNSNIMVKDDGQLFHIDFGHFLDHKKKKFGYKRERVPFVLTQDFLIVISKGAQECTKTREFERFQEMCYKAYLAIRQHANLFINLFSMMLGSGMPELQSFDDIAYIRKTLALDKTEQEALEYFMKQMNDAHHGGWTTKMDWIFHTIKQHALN
Sequence (P27986 whole entry partner): as the sequence (P27986 whole entry partner) above
Experiment: PI3K alpha in vitro inhibition
Format: biochemical
Conditions: not given
Description: as §1

Row | Compound | IC50 [nM]
25 | CN(C)C(=O)c1cc2cnc(Nc3ccc(-c4csc5c(=O)cc(N6CCN(C(=O)OC(C)(C)C)CC6)oc45)cc3)nc2n1C1CCCC1 [Compound 10] | 1000 to 10000
26 | COC(=O)c1cc(-c2csc3c(=O)cc(N4CCOCC4)oc23)ccc1Nc1ncc2cc(C(=O)N(C)C)n(C3CCCC3)c2n1 [Compound 11] | < 500
27 | CN(C)C(=O)c1cc2cnc(Nc3csc4c(=O)cc(N5CCOCC5)oc34)nc2n1C1CCCC1 [Compound 12] | 1000 to 10000
28 | CN(C)C(=O)c1cc2cnc(Nc3ccc(-c4csc5c(=O)cc(N6CCOCC6)oc45)cc3C(=O)O)nc2n1C1CCCC1 [Compound 13] | < 500
29 | CN(C)C(=O)c1cc2cnc(Nc3ccc(-c4csc5c(=O)cc(N6CCOCC6)oc45)c(C(=O)O)c3)nc2n1C1CCCC1 [Compound 14] | < 500
30 | CN(C)C(=O)c1cc2cnc(Nc3ccc(-c4csc5c(=O)cc(N6CCOCC6)oc45)c(C(=O)O)c3)nc2n1C1CCCC1 [Compound 15] | < 500
31 | CNC(=O)c1cc2cnc(Nc3ccc(-c4csc5c(=O)cc(N6CCOCC6)oc45)cc3)nc2n1C1CCCC1 [Compound 16] | < 500
32 | CNC(=O)c1cc2cnc(Nc3ccc(C#Cc4csc5c(=O)cc(N6CCOCC6)oc45)cc3)nc2n1C1CCCC1 [Compound 17] | < 500

Molecular target: T1, BRD4-2 (Homo sapiens, UniProt O60885)
T1 construct: BRD4-2
Experiment: BRD4-2 in vitro inhibition
Format: binding
Conditions: not given
Description: as §1

Row | Compound | IC50 [nM]
33 | CN(C)C(=O)c1cc2cnc(Nc3ccc(-c4csc5c(=O)cc(N6CCN(C(=O)OC(C)(C)C)CC6)oc45)cc3)nc2n1C1CCCC1 [Compound 10] | 1000 to 10000
34 | COC(=O)c1cc(-c2csc3c(=O)cc(N4CCOCC4)oc23)ccc1Nc1ncc2cc(C(=O)N(C)C)n(C3CCCC3)c2n1 [Compound 11] | 1000 to 10000
35 | CN(C)C(=O)c1cc2cnc(Nc3csc4c(=O)cc(N5CCOCC5)oc34)nc2n1C1CCCC1 [Compound 12] | 10000 to 45000
36 | CN(C)C(=O)c1cc2cnc(Nc3ccc(-c4csc5c(=O)cc(N6CCOCC6)oc45)cc3C(=O)O)nc2n1C1CCCC1 [Compound 13] | 500 to 1000
37 | CN(C)C(=O)c1cc2cnc(Nc3ccc(-c4csc5c(=O)cc(N6CCOCC6)oc45)c(C(=O)O)c3)nc2n1C1CCCC1 [Compound 14] | 10000 to 45000
38 | CN(C)C(=O)c1cc2cnc(Nc3ccc(-c4csc5c(=O)cc(N6CCOCC6)oc45)c(C(=O)O)c3)nc2n1C1CCCC1 [Compound 15] | 10000 to 45000
39 | CNC(=O)c1cc2cnc(Nc3ccc(-c4csc5c(=O)cc(N6CCOCC6)oc45)cc3)nc2n1C1CCCC1 [Compound 16] | < 500
40 | CNC(=O)c1cc2cnc(Nc3ccc(C#Cc4csc5c(=O)cc(N6CCOCC6)oc45)cc3)nc2n1C1CCCC1 [Compound 17] | 10000 to 45000

Molecular target: T2, BRD4-1 (Homo sapiens, UniProt O60885)
T2 construct: BRD4-1
Experiment: BRD4-1 in vitro inhibition
Format: binding
Conditions: not given
Description: as §1

Row | Compound | IC50 [nM]
41 | CN(C)C(=O)c1cc2cnc(Nc3ccc(-c4csc5c(=O)cc(N6CCN(C(=O)OC(C)(C)C)CC6)oc45)cc3)nc2n1C1CCCC1 [Compound 10] | 500 to 1000
42 | COC(=O)c1cc(-c2csc3c(=O)cc(N4CCOCC4)oc23)ccc1Nc1ncc2cc(C(=O)N(C)C)n(C3CCCC3)c2n1 [Compound 11] | < 500
43 | CN(C)C(=O)c1cc2cnc(Nc3csc4c(=O)cc(N5CCOCC5)oc34)nc2n1C1CCCC1 [Compound 12] | 10000 to 45000
44 | CN(C)C(=O)c1cc2cnc(Nc3ccc(-c4csc5c(=O)cc(N6CCOCC6)oc45)cc3C(=O)O)nc2n1C1CCCC1 [Compound 13] | 500 to 1000
45 | CN(C)C(=O)c1cc2cnc(Nc3ccc(-c4csc5c(=O)cc(N6CCOCC6)oc45)c(C(=O)O)c3)nc2n1C1CCCC1 [Compound 14] | > 45000
46 | CN(C)C(=O)c1cc2cnc(Nc3ccc(-c4csc5c(=O)cc(N6CCOCC6)oc45)c(C(=O)O)c3)nc2n1C1CCCC1 [Compound 15] | 10000 to 45000
47 | CNC(=O)c1cc2cnc(Nc3ccc(-c4csc5c(=O)cc(N6CCOCC6)oc45)cc3)nc2n1C1CCCC1 [Compound 16] | < 500
48 | CNC(=O)c1cc2cnc(Nc3ccc(C#Cc4csc5c(=O)cc(N6CCOCC6)oc45)cc3)nc2n1C1CCCC1 [Compound 17] | 1000 to 10000

Molecular target: CDK6 cyclinD1 (Homo sapiens, UniProt Q00534)
Sequence (Q00534 whole entry): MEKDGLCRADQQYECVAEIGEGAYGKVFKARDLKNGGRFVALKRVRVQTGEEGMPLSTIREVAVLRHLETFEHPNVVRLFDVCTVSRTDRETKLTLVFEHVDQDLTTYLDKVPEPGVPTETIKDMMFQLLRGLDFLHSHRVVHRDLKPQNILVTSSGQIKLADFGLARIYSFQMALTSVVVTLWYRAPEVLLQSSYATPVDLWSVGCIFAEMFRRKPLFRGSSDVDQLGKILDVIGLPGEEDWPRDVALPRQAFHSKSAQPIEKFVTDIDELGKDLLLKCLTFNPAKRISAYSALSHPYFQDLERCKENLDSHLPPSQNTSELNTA
Sequence (P24385 whole entry partner): as the sequence (P24385 whole entry partner) above
Experiment: CDK6 cyclinD1 in vitro inhibition
Format: biochemical
Conditions: not given
Description: as §1, §2

Row | Compound | IC50 [nM]
49 | CN(C)C(=O)c1cc2cnc(Nc3ccc(-c4csc5c(=O)cc(N6CCN(C(=O)OC(C)(C)C)CC6)oc45)cc3)nc2n1C1CCCC1 [Compound 10] | < 500
50 | COC(=O)c1cc(-c2csc3c(=O)cc(N4CCOCC4)oc23)ccc1Nc1ncc2cc(C(=O)N(C)C)n(C3CCCC3)c2n1 [Compound 11] | > 45000
51 | CN(C)C(=O)c1cc2cnc(Nc3csc4c(=O)cc(N5CCOCC5)oc34)nc2n1C1CCCC1 [Compound 12] | > 45000
52 | CN(C)C(=O)c1cc2cnc(Nc3ccc(-c4csc5c(=O)cc(N6CCOCC6)oc45)cc3C(=O)O)nc2n1C1CCCC1 [Compound 13] | > 45000
53 | CN(C)C(=O)c1cc2cnc(Nc3ccc(-c4csc5c(=O)cc(N6CCOCC6)oc45)c(C(=O)O)c3)nc2n1C1CCCC1 [Compound 14] | 10000 to 45000
54 | CN(C)C(=O)c1cc2cnc(Nc3ccc(-c4csc5c(=O)cc(N6CCOCC6)oc45)c(C(=O)O)c3)nc2n1C1CCCC1 [Compound 15] | 500 to 1000
55 | CNC(=O)c1cc2cnc(Nc3ccc(-c4csc5c(=O)cc(N6CCOCC6)oc45)cc3)nc2n1C1CCCC1 [Compound 16] | < 500
56 | CNC(=O)c1cc2cnc(Nc3ccc(C#Cc4csc5c(=O)cc(N6CCOCC6)oc45)cc3)nc2n1C1CCCC1 [Compound 17] | < 500
